Key:
Assay type in all cases: biochemical
TXK = TXK (Homo sapiens (Human), UniProt P42681); experiment: IC50 against TXK; conditions: for TXK/ITK: ratio of TXK IC50 to ITK IC50
BTK = BTK (Homo sapiens (Human), UniProt Q06187); experiment: IC50 against BTK
ITK = ITK (Homo sapiens (Human), UniProt Q08881); experiment: IC50 against ITK
JAK3 = JAK3 (Homo sapiens (Human), UniProt P52333); experiment: IC50 against JAK3
Chain of JAK3 (P52333 whole entry, species assumed): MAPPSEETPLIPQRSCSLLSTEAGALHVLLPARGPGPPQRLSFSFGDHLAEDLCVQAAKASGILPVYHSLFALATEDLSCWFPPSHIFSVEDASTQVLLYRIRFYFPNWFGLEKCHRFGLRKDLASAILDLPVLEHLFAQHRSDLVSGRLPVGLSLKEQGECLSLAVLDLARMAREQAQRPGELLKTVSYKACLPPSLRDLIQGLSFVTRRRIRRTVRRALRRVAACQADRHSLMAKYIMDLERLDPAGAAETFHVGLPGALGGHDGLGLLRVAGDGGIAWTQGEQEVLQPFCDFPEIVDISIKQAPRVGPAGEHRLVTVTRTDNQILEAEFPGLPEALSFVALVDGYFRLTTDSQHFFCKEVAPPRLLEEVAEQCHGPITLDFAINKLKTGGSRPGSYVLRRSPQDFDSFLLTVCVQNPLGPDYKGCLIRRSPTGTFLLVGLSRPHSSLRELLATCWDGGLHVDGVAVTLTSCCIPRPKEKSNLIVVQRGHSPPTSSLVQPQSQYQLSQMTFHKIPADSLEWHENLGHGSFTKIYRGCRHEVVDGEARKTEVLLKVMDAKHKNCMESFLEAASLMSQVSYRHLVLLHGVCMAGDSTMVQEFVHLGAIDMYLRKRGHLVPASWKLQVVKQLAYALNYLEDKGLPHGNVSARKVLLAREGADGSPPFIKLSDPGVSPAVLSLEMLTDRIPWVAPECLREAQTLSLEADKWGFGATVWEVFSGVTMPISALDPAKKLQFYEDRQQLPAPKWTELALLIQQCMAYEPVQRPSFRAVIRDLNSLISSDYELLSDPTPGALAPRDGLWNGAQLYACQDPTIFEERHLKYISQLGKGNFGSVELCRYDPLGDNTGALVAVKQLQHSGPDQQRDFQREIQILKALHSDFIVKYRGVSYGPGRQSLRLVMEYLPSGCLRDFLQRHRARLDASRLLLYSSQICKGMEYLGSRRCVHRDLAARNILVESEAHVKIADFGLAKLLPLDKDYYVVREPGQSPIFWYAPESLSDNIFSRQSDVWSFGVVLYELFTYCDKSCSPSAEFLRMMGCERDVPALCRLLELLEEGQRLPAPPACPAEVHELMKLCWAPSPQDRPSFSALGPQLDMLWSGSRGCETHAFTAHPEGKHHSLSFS

Chain of BTK (Q06187 whole entry, species assumed): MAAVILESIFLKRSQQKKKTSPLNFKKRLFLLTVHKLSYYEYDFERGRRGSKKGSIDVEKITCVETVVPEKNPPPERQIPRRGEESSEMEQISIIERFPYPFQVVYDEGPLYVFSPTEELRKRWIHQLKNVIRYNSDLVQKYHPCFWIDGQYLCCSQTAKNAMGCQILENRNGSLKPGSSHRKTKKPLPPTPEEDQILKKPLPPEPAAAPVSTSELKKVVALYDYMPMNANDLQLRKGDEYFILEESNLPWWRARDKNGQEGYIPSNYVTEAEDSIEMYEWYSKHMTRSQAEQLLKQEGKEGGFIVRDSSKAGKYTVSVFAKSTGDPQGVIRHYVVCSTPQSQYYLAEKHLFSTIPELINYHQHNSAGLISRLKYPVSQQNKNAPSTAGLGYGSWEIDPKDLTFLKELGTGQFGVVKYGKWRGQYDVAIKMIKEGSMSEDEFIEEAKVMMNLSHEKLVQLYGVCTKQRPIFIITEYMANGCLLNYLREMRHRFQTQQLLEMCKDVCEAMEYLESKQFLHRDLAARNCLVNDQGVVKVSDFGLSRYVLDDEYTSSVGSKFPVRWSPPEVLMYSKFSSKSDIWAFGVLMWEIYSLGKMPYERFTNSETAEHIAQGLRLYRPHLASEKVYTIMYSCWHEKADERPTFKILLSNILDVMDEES
Chain of ITK (Q08881 whole entry): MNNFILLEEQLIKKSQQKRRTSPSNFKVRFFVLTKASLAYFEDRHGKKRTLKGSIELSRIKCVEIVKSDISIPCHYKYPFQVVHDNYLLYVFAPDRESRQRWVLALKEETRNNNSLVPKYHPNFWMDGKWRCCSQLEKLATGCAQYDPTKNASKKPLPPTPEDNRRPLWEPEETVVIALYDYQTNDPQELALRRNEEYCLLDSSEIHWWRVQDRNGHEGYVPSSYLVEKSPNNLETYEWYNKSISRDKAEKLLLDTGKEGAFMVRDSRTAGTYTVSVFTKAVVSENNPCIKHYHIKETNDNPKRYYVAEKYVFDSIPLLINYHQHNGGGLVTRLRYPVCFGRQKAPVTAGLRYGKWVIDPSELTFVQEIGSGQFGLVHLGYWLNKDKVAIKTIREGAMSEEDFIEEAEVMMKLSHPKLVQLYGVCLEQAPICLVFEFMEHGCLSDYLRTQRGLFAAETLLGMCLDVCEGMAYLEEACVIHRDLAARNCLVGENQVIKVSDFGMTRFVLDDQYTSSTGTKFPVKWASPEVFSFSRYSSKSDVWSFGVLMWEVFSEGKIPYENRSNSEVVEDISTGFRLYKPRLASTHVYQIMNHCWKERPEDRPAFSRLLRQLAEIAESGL
Chain of TXK (P42681 whole entry, species assumed): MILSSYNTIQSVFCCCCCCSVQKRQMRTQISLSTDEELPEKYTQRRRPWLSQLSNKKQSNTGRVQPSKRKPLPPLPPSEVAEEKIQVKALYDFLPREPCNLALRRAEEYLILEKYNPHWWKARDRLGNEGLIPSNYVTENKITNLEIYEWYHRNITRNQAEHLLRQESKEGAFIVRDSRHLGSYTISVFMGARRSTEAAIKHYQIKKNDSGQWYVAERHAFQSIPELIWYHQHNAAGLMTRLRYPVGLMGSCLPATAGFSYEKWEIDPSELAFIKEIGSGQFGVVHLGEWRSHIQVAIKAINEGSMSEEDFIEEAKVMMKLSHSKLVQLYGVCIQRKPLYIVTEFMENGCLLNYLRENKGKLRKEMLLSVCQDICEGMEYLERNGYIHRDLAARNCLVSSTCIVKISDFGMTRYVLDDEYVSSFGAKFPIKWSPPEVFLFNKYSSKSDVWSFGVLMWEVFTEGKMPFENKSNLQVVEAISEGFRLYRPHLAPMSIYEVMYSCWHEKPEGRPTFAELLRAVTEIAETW

Structure (SMILES) | IC50 (TXK) [nM] | TXK/ITK (TXK) | IC50 (BTK) [nM] | IC50 (ITK) [nM] | IC50 (JAK3) [nM]
C=CC(=O)N1CCN(C(=O)c2cc(Sc3cnc(NC(C)=O)s3)c(C)cc2OC)CC1 [Compound 2] | 100 to 1000 | 19.869 | 100 to 1000 | < 10 | 100 to 1000
COc1cc(C)c(Sc2cnc(NC(=O)C3CC3)s2)cc1C(=O)N1CCN(C(=O)/C=C/CN(C)C)CC1 [Compound 3] | 100 to 1000 | 5.162 | 1000 to 10000 | 10 to 100 | ≥ 10000
C=CC(=O)N1CCN(C(=O)c2cccc(Cc3cnc(NC(=O)C4CC4)s3)c2)CC1 [Compound 4] | 10 to 100 | 0.3296 | 100 to 1000 | 10 to 100 | 100 to 1000
C=CC(=O)N1CCN(C(=O)c2cc(Sc3cnc(NC(C)=O)s3)c(C)cc2OC)C(C)(C)C1 [Compound 5] | < 10 | 1.9721 | 10 to 100 | < 10 | 100 to 1000
C=CC(=O)N1CCN(C(=O)c2cc(Sc3cnc(NC(C)=O)s3)c(C)cc2OC)CC1(C)C [Compound 6] | 100 to 1000 | 5.9566 | 1000 to 10000 | 10 to 100 | 1000 to 10000
C=CC(=O)N1C[C@H]2CC[C@@H](C1)N2C(=O)c1cc(Sc2cnc(NC(C)=O)s2)c(C)cc1OC [Compound 7] | 10 to 100 | 11.993 | 10 to 100 | < 10 | 10 to 100
C=CC(=O)N1[C@@H]2CC[C@H]1CN(C(=O)c1cc(Sc3cnc(NC(C)=O)s3)c(C)cc1OC)C2 [Compound 8] | 10 to 100 | 11.265 | 10 to 100 | < 10 | 100 to 1000
C=CC(=O)N1CCN(C(=O)c2cc(Sc3cnc(NC(C)=O)s3)c(C)cc2OC)[C@@H](C)C1 [Compound 9] | 10 to 100 | 14.236 | 100 to 1000 | < 10 | 100 to 1000
C=CC(=O)N1CCN(C(=O)c2cc(Sc3cnc(NC(C)=O)s3)c(C)cc2OC)[C@H](C)C1 [Compound 10] | 100 to 1000 | 8.0758 | 100 to 1000 | 10 to 100 | 1000 to 10000
C=CC(=O)N1CCN(C(=O)c2cc(Sc3cnc(NC(C)=O)s3)c(C)cc2OC)C[C@H]1C [Compound 11] | 100 to 1000 | 25.051 | 1000 to 10000 | < 10 | 1000 to 10000
C=CC(=O)N1CCN(C(=O)c2cc(Sc3cnc(NC(C)=O)s3)c(C)cc2OC)C[C@@H]1C [Compound 12] | 100 to 1000 | 14.784 | 100 to 1000 | 10 to 100 | 100 to 1000
C=C(CN(C)C)C(=O)N1CCN(C(=O)c2cc(Sc3cnc(NC(=O)C4CC4)s3)c(C)cc2OC)CC1 [Compound 13] | 100 to 1000 | 22.987 | 1000 to 10000 | 10 to 100 | 1000 to 10000
C=CC(=O)N1CCN(C(=O)c2cc(Sc3cnc(NC(=O)c4cccc(CN(C)C)c4)s3)c(C)cc2OC)CC1 [Compound 14] | 100 to 1000 | 79.163 | 100 to 1000 | < 10 | 1000 to 10000
C=CC(=O)N1CCN(C(=O)c2cc(Sc3cnc(NC(=O)C4CC4)s3)c(C)cc2OC)C(C)(C)C1 [Compound 15] | < 10 | 1.1111 | < 10 | < 10 | 10 to 100
C=CC(=O)N1CCN(C(=O)c2cc(Sc3cnc(NC(=O)C4CC4)s3)c(C)cc2OC)CC1(C)C [Compound 16] | 10 to 100 | 4.9287 | 100 to 1000 | 10 to 100 | 100 to 1000
C=CC(=O)N1C[C@H]2CC[C@@H](C1)N2C(=O)c1cc(Sc2cnc(NC(=O)C3CC3)s2)c(C)cc1OC [Compound 17] | < 10 | 5.4235 | < 10 | < 10 | 10 to 100
C=CC(=O)N1[C@@H]2CC[C@H]1CN(C(=O)c1cc(Sc3cnc(NC(=O)C4CC4)s3)c(C)cc1OC)C2 [Compound 18] | < 10 | 2.8993 | 10 to 100 | < 10 | 10 to 100
C=CC(=O)N1CCN(C(=O)c2cc(Sc3cnc(NC(=O)C4CC4)s3)c(C)cc2OC)[C@@H](C)C1 [Compound 19] | < 10 | 6.5873 | 10 to 100 | < 10 | 100 to 1000
C=CC(=O)N1CCN(C(=O)c2cc(Sc3cnc(NC(=O)C4CC4)s3)c(C)cc2OC)[C@H](C)C1 [Compound 20] | 10 to 100 | 2.2433 | 100 to 1000 | < 10 | 100 to 1000
C=CC(=O)N1CCN(C(=O)c2cc(Sc3cnc(NC(=O)C4CC4)s3)c(C)cc2OC)C[C@@H]1C [Compound 22] | 10 to 100 | 6.7674 | 100 to 1000 | < 10 | 100 to 1000
C=CC(=O)N1C[C@@H]2C[C@H]1CN2C(=O)c1cc(Sc2cnc(NC(=O)C3CC3)s2)c(C)cc1OC [Compound 23] | < 10 | 1.4139 | < 10 | < 10 | 10 to 100
C=CC(=O)N1C[C@@H]2C[C@H]1CN2C(=O)c1cc(Sc2cnc(NC(C)=O)s2)c(C)cc1OC [Compound 24] | 10 to 100 | 6.6876 | 10 to 100 | < 10 | 100 to 1000
C=CC(=O)N1CCCN(C(=O)c2cc(Sc3cnc(NC(=O)C4CC4)s3)c(C)cc2OC)CC1 [Compound 25] | 10 to 100 | 20.879 | 100 to 1000 | < 10 | 100 to 1000
C=CC(=O)N1CCCN(C(=O)c2cc(Sc3cnc(NC(C)=O)s3)c(C)cc2OC)CC1 [Compound 26] | 100 to 1000 | 26.486 | 1000 to 10000 | 10 to 100 | 1000 to 10000
C=CC(=O)N1CC[C@@H](N(C)C(=O)c2cc(Sc3cnc(NC(=O)C4CC4)s3)c(C)cc2OC)C1 [Compound 27] | < 10 | 2.0165 | < 10 | < 10 | < 10
C=CC(=O)N1CC[C@@H](N(C)C(=O)c2cc(Sc3cnc(NC(C)=O)s3)c(C)cc2OC)C1 [Compound 28] | 10 to 100 | 5.5925 | < 10 | < 10 | 10 to 100
C=CC(=O)N1CC[C@H](N(C)C(=O)c2cc(Sc3cnc(NC(=O)C4CC4)s3)c(C)cc2OC)C1 [Compound 29] | < 10 | 2.1804 | 100 to 1000 | < 10 | 100 to 1000
C=CC(=O)N1C[C@H]2CN(C(=O)c3cc(Sc4cnc(NC(=O)C5CC5)s4)c(C)cc3OC)C[C@H]21 [Compound 52] | 10 to 100 | – | – | < 10 | 1000 to 10000
C=CC(=O)N1CCCN(C(=O)c2cc(Sc3cnc(NC(=O)C4CC4)s3)c(C)cc2OC)C[C@@H]1C [Compound 71] | 100 to 1000 | – | 1000 to 10000 | – | 1000 to 10000
C=CC(=O)N1CCN(C(=O)c2cc(Sc3cnc(NC(=O)C4CC4)s3)c(C)cc2C)C[C@H]1C [Compound 75] | 10 to 100 | – | – | < 10 | 100 to 1000
